According to patent publication US20260085082A1, “KDM1A INHIBITORS FOR THE TREATMENT OF DISEASE” (Imago Biosciences, Inc., priority 2022, published 2026):
Like-named read-outs stand apart in the source and are kept apart here.

What was measured:
LSD1 = LSD1 (Homo sapiens, UniProt O60341); assay: LSD1 10-dose IC50 fluorescence coupling enzyme assay (HRP/Amplex Red, resorufin); assay type: biochemical; conditions: 10 M histone H3(1-21)K4me2 peptide substrate; 3-fold serial dilution in duplicate starting at 100 μM
Experimental: Compounds were tested in a 10-dose IC50 mode fluorescence coupling enzyme assay with 3-fold serial dilution in duplicate starting at 100 μM. The production of FAD-dependent H2O2 as a result of demethylase activity of LSD1 on […] histone H3(1-21)K4me2 peptide substrate was measured by coupling with HRP and Amplex Red to yield resorufin (fluorescence measured at Ex/Em=535/590 nm on EnVision, Perkin Elmer).

MV4;11 cells = assay: Cell Titer-Glo Luminescent Cell Viability Assay, cell growth inhibition against MV4;11 cells; assay type: cell-based; conditions: Homo sapiens
Experimental: Cell growth inhibition against MV4;11 cells was confirmed for the synthetic compounds. The Cell Titer-Glo Luminescent Cell Viability Assay (Promega, USA) was used to determine the number of viable cells in culture based on quantitation of the ATP present, which signals the presence of metabolically active cells. This assay was run in a 96-well plate format arrayed in a 10-point dose curve, ranging from 0 to 50 μM with 4-fold dilutions for each compound. Cells are seeded on Day 0 at 3750 cells per well. At Day 5, a portion of each well is assayed for viability according to the Cell Titer-Glo protocol. Briefly, cells/plates were centrifuged at 1100×g for 5 minutes. 100 μL of media was removed from each well and replaced with 100 μL of CellTiter-Glo. The plates were shaken at room temperature for 10 minutes and measured on a luminescence plate reader. Another portion of each well from the Day 5 plate is used to seed a new 96 plate containing fresh compound and media set up in the equivalent 10-point dose curve array in order to continue the cell growth inhibition assay for another 5 days. A final timepoint is collected at Day 10 using the Cell Titer-Glo protocol. Luminescence was detected on an EnVision® Multilabel Plate Reader (Perkin Elmer, Waltham, Mass.) and IC50 determination was made using Graph Pad Prism software.

[1] = MV4-11, 120 h, MV4;11 cells, Day 5, 10-point dose curve 0 to 50 μM, read-out: Cell Titer Glo IC50 (5 d)
[2] = MV4-11, MV4;11 cells, Day 10 (re-seeded at Day 5 with fresh compound), 10-point dose curve 0 to 50 μM, read-out: Cell Titer Glo IC50 (10 d)

| SMILES | IC50 (LSD1) [µM] | IC50 (MV4;11 cells; [1]) [µM] | IC50 (MV4;11 cells; [2]) [µM] | IC50 (MV4;11 cells; MV4;11 cells, Day 10 (re-seeded at Day 5 with fresh compound), 10-point dose curve 0 to 50 μM, read-out: Cell Titer Glo IC50 (10 d)) [µM] |
| --- | --- | --- | --- | --- |
| Cc1ccc(-n2nc(C(=O)N3CCC(N)CC3)cc2-c2ccc(C#N)c(F)c2)cc1 [Example 9, 4-(3-(4-Aminopiperidine-1-carbonyl)-1-(p-tolyl)-1H-pyrazol-5-yl)-2-fluorobenzonitrile] | < 0.5 | 1 to 10 | – | – |
| COc1ccc(-n2nc(C(=O)N[C@@H]3CCNC3)cc2-c2ccc(C#N)c(F)c2)cc1 [Example 27, (R)-5-(4-cyano-3-fluorophenyl)-1-(4-methoxyphenyl)-N-(pyrrolidin-3-yl)-1H-pyrazole-3-carboxamide 2,2,2-trifluoroacetate] | 1 to 10 | 1 to 10 | – | – |
| N#Cc1ccc(-c2cc(C(=O)N3CCC[C@@H](N)C3)nn2-c2ccc(-c3cnc4c(c3)OCCO4)cc2)cc1F [Example 84, (R)-4-(3-(3-aminopiperidine-1-carbonyl)-1-(4-(2,3-dihydro-[1,4]dioxino[2,3-b]pyridin-7-yl)phenyl)-1H-pyrazol-5-yl)-2-fluorobenzonitrile 2,2,2-trifluoroacetate] | < 0.5 | – | < 0.5 | – |
| COc1ccc(-n2nc(-c3ccc(C#N)cc3)cc2C(=O)NC2CCCNC2)cc1 (stereo not drawn) [Example 5, 3-(4-Cyanophenyl)-1-(4-methoxyphenyl)-N-(piperidin-3-yl)-1H-pyrazole-5-carboxamide 2,2,2-trifluoroacetate] | 1 to 10 | > 10 | – | – |
| COc1ccc(-n2nc(C(=O)NC3CCCNC3)cc2-c2ccc(C#N)cc2)cc1 (stereo not drawn) [Example 3, 5-(4-Cyanophenyl)-1-(4-methoxyphenyl)-N-(piperidin-3-yl)-1H-pyrazole-3-carboxamide 2,2,2-trifluoroacetate] | 1 to 10 | 1 to 10 | – | – |
| COc1ccc(-n2nc(C(=O)N3CCCC(N)C3)cc2-c2ccc(C#N)c(F)c2)cc1 (stereo not drawn) [Example 16, 4-(3-(3-Aminopiperidine-1-carbonyl)-1-(4-methoxyphenyl)-1H-pyrazol-5-yl)-2-fluorobenzonitrile] | < 0.5 | < 0.5 | – | – |
| CN1CCN(c2ccc(-n3nc(C(=O)N4CCC[C@@H](N)C4)cc3-c3ccc(C#N)c(F)c3)cc2)CC1=O [Example 50, (R)-4-(3-(3-aminopiperidine-1-carbonyl)-1-(4-(4-methyl-3-oxopiperazin-1-yl)phenyl)-1H-pyrazol-5-yl)-2-fluorobenzonitrile] | < 0.5 | – | < 0.5 | – |
| COc1ccc(-n2nc(C(=O)N[C@@H]3CCC[C@H](N)C3)cc2-c2ccc(C#N)c(F)c2)cc1 [Example 28, N-((1R,3S)-3-aminocyclohexyl)-5-(4-cyano-3-fluorophenyl)-1-(4-methoxyphenyl)-1H-pyrazole-3-carboxamide 2,2,2-trifluoroacetate] | 0.5 to 1 | 1 to 10 | – | – |
| COC1CCN(c2ccc(-n3nc(C(=O)N4CCC[C@@H](N)C4)cc3-c3ccc(C#N)c(F)c3)nc2)CC1 [Example 53, (R)-4-(3-(3-aminopiperidine-1-carbonyl)-1-(5-(4-methoxypiperidin-1-yl)pyridin-2-yl)-1H-pyrazol-5-yl)-2-fluorobenzonitrile 2,2,2-trifluoroacetate] | 1 to 10 | – | < 0.5 | – |
| COc1ccc(-n2nc(C(=O)N3CCCC(N)C3)cc2-c2ccc(C#N)cc2)cc1 (stereo not drawn) [Example 2, 4-(3-(3-Aminopiperidine-1-carbonyl)-1-(4-methoxyphenyl)-1H-pyrazol-5-yl)benzonitrile] | < 0.5 | 0.5 to 1 | – | – |
| N#Cc1ccc(-c2cc(C(=O)N3CCC[C@@H](N)C3)nn2-c2ccc(N3CCS(=O)(=O)CC3)cc2)cc1F [Example 71, (R)-4-(3-(3-aminopiperidine-1-carbonyl)-1-(4-(1,1-dioxidothiomorpholino)phenyl)-1H-pyrazol-5-yl)-2-fluorobenzonitrile 2,2,2-trifluoroacetate] | < 0.5 | – | < 0.5 | – |
| COc1ccc(-n2nc(-c3ccc(C#N)c(F)c3)cc2C(=O)N2CCCC(N)C2)cc1 (stereo not drawn) [Example 17, 4-(5-(3-Aminopiperidine-1-carbonyl)-1-(4-methoxyphenyl)-1H-pyrazol-3-yl)-2-fluorobenzonitrile] | < 0.5 | 1 to 10 | – | – |
| COc1ccc(-n2cc(C(=O)N3CCC(N)CC3)c(-c3ccc(C#N)cc3)n2)cc1 [Example 86, 4-(4-(4-aminopiperidine-1-carbonyl)-1-(4-methoxyphenyl)-1H-pyrazol-3-yl)benzonitrile] | > 10 | > 10 | – | – |
| Cc1ccc(-n2nc(C(=O)N3CCC[C@H](N)C3)cc2-c2ccc(C#N)c(F)c2)cc1 [Example 12, (S)-4-(3-(3-Aminopiperidine-1-carbonyl)-1-(p-tolyl)-1H-pyrazol-5-yl)-2-fluorobenzonitrile] | < 0.5 | < 0.5 | < 0.5 | – |
| Cc1ccc(-n2nc(-c3ccc(C#N)c(F)c3)cc2C(=O)N2CCCC(N)C2)cc1 (stereo not drawn) [Example 14, 4-(5-(3-Aminopiperidine-1-carbonyl)-1-(p-tolyl)-1H-pyrazol-3-yl)-2-fluorobenzonitrile] | < 0.5 | 1 to 10 | – | – |
| COc1ccc(-n2nc(NC(=O)[C@H]3CC[C@H](N)CC3)cc2-c2ccc(C#N)c(F)c2)cc1 [Example 91, (1R,4R)-4-Amino-N-(5-(4-cyano-3-fluorophenyl)-1-(4-methoxyphenyl)-1H-pyrazol-3-yl)cyclohexane-1-carboxamide 2,2,2-trifluoroacetate] | 1 to 10 | 1 to 10 | – | – |
| COc1ccc(-n2nc(C(=O)N[C@H]3CCC[C@H](N)C3)cc2-c2ccc(C#N)c(F)c2)cc1 [Example 25, N-((1S,3S)-3-aminocyclohexyl)-5-(4-cyano-3-fluorophenyl)-1-(4-methoxyphenyl)-1H-pyrazole-3-carboxamide 2,2,2-trifluoroacetate] | 1 to 10 | 1 to 10 | – | – |
| COc1ccc(-n2nc(C(=O)N3CC(CN)C3)cc2-c2ccc(C#N)c(F)c2)cc1 [Example 32, 4-(3-(3-(Aminomethyl)azetidine-1-carbonyl)-1-(4-methoxyphenyl)-1H-pyrazol-5-yl)-2-fluorobenzonitrile 2,2,2-trifluoroacetate] | 1 to 10 | 1 to 10 | – | – |
| Cc1cc(CCn2nc(C(=O)N3CCC[C@H](N)C3)cc2-c2ccc(C#N)c(F)c2)on1 [Example 39, (S)-4-(3-(3-aminopiperidine-1-carbonyl)-1-(2-(3-methylisoxazol-5-yl)ethyl)-1H-pyrazol-5-yl)-2-fluorobenzonitrile] | > 10 | > 10 | – | – |
| N#Cc1ccc(-c2cc(C(=O)N3CCC[C@@H](N)C3)nn2-c2ccc(N3CCCC3)cc2)cc1F [Example 62, (R)-4-(3-(3-aminopiperidine-1-carbonyl)-1-(4-(pyrrolidin-1-yl)phenyl)-1H-pyrazol-5-yl)-2-fluorobenzonitrile 2,2,2-trifluoroacetate] | < 0.5 | – | < 0.5 | – |
| COc1ccc(-n2nc(C(=O)NC3CCNCC3)cc2-c2ccc(C#N)c(F)c2)cc1 [Example 24, 5-(4-Cyano-3-fluorophenyl)-1-(4-methoxyphenyl)-N-(piperidin-4-yl)-1H-pyrazole-3-carboxamide] | 1 to 10 | 1 to 10 | – | – |
| CN1CCN(c2ccc(-n3nc(-c4ccc(C#N)c(F)c4)cc3C(=O)N3CCC[C@@H](N)C3)cc2)CC1 [Example 58, (R)-4-(5-(3-aminopiperidine-1-carbonyl)-1-(4-(4-methylpiperazin-1-yl)phenyl)-1H-pyrazol-3-yl)-2-fluorobenzonitrile 2,2,2-trifluoroacetate] | < 0.5 | – | < 0.5 | – |
| COc1ccc(-n2nc(NC(=O)[C@@H]3CCNC3)cc2-c2ccc(C#N)c(F)c2)cc1 [Example 94, (R)-N-(5-(4-cyano-3-fluorophenyl)-1-(4-methoxyphenyl)-1H-pyrazol-3-yl)pyrrolidine-3-carboxamide 2,2,2-trifluoroacetate] | < 0.5 | 1 to 10 | – | – |
| N#Cc1ccc(-c2cc(C(=O)N3CCC[C@@H](N)C3)nn2-c2ccc(N3CCC(=O)CC3)cc2)cc1F [Example 46, (R)-4-(3-(3-aminopiperidine-1-carbonyl)-1-(4-(4-oxopiperidin-1-yl)phenyl)-1H-pyrazol-5-yl)-2-fluorobenzonitrile] | < 0.5 | – | < 0.5 | – |
| COP(=O)(OC)OCCCOC1CCN(c2ccc(-n3nc(C(=O)N4CCC[C@@H](N)C4)cc3-c3ccc(C#N)c(F)c3)cc2)CC1 [Example 70, (R)-3-((1-(4-(3-(3-aminopiperidine-1-carbonyl)-5-(4-cyano-3-fluorophenyl)-1H-pyrazol-1-yl)phenyl)piperidin-4-yl)oxy)propyl dimethyl phosphate 2,2,2-trifluoroacetate] | < 0.5 | – | – | < 0.5 |
